Test results as given in patent publication US12121518B2, “PARP-1 and methods of use thereof” (The Board of Supervisors of Louisiana State University and …, priority 2017, dated 2024).

Key:
ARG-1, iNOS, COX2 = experiment: Immunoblot of ARG-1, iNOS, COX2 and related factors in bone marrow-derived MDSCs; assay type: cell-based, mouse; details: day 2 to day 4 of differentiation
Source text: (I) Positive control for PARP-1 trapping.
Cell fractionation, protein extraction and immunoblot analysis—Tumor tissues or cells were harvested and homogenized in RIPA lysis buffer (Santa Cruz Biotechnology) containing a cocktail of protease and phosphatase inhibitors on ice. Nuclear fractions were isolated as described (35) and the remaining chromatin pellets were washed then suspended in an isotonic buffer followed by sonication. […] Protein expression signals developed by ECL (Pierce, ThermoFisher Scientific) were determined by a G:Box Gel Image Analysis System (Syngene, Cambridge, UK) equipped with the GeneSys image capture software.

[1] = in vivo; cited from earlier work
[2] = system: steroid-resistant leukemia cells; experiment: Steroid-resistant leukemia cells: cell killing and NOTCH levels; assay type: cell-based; details: GSI alone: 1 nM PF-3084014 or 25 nM BMS-906024
[3] = system: trinitrobenzene sulfonic acid-induced colitis; details: in vivo; cited from earlier work
[4] = system: bone marrow-derived MDSCs; experiment: Bone marrow-derived MDSC differentiation in vitro: viability and CD11b/Gr1 phenotype by FACS; details: 1 μM
[5] = 20-30 μM; cited from earlier work

## Cn1ncnc1[C@H]1c2n[nH]c(=O)c3cc(F)cc(c23)N[C@@H]1c1ccc(F)cc1 [talazoparib]
ARG-1, iNOS, COX2; 0.4 nM
  expression of Arg1 in BM-MDSCs: blocked expression of Arg1
[1]
  maximum tolerated dose: 1 mg/day

## CCC[C@H](N[C@H]1CCc2cc(F)cc(F)c2C1)C(=O)Nc1cn(C(C)(C)CNCC(C)(C)C)cn1 [PF-3084014]
[2]
  NOTCH1 levels or cell proliferation of leukemia cells: do not have major effects

## CN1C(=O)[C@@H](NC(=O)[C@H](CCC(F)(F)F)[C@H](CCC(F)(F)F)C(N)=O)N=C(c2ccccc2)c2ccccc21 [BMS-906024]
[2]
  NOTCH1 levels or cell proliferation of leukemia cells: do not have major effects

## NC(=O)c1cccc(N)c1 [3-aminobenzamide]
[3]
  colitis: protection

## C[C@]1(c2nc3c(C(N)=O)cccc3[nH]2)CCCN1 [velaparib]
ARG-1, iNOS, COX2; 4 nM
  expression of Arg1 in BM-MDSCs: blocked expression of Arg1

## CNCc1ccc(-c2[nH]c3cc(F)cc4c3c2CCNC4=O)cc1 [rucaparib]
ARG-1, iNOS, COX2; 4 nM
  expression of Arg1 in BM-MDSCs: blocked expression of Arg1
[4]
  MDSC population (CD11b+/Gr1+) at day 4: appears to increase MDSC population

## NC(=O)c1cccc2cn(-c3ccc([C@@H]4CCCNC4)cc3)nc12 [niraparib]
ARG-1, iNOS, COX2; 4 nM
  expression of Arg1 in BM-MDSCs: blocked expression of Arg1

## O=c1[nH]c2sccc2c2ccccc12 [TIQ-A]
[5]
  cytotoxicity: cytotoxic
